{"source": "patent US20060142279A1", "about": "(priority 2004, published 2006)", "key": {"[1]": {"system": "dormant M. bovis BCG, expressing the luciferase gene on plasmid pSMT1", "format": "cell-based, Mycobacterium bovis", "conditions": "7 days of anaerobiosis, then 5 days in drug free medium"}, "[2]": {"system": "dormant Mycobacterium bovis BCG", "format": "cell-based"}, "[3]": {"system": "dormant Mycobacterium tuberculosis (H37RV)", "assay": "Wayne dormancy model, CFU assay", "conditions": "for reduction of the dormant bacteria (CFU compared to untreated control): drug added after 14 days, cultures collected after 22 days"}}, "note": "Like-named read-outs stand apart in the source and are kept apart here.", "data": [{"compound": "COc1nc2ccc(Br)cc2cc1C(c1ccccc1)C(O)(CCN(C)C)c1ccccc1", "note": "(stereo not drawn)", "values": [{"measurement": "melting point", "value": 84, "unit": "°C"}]}, {"compound": "COc1nc2ccc(Br)cc2cc1[C@@H](c1ccccc1)[C@@](O)(CCN(C)C)c1cccc2ccccc12", "note": "[Compound 12, (αS, βR)-6-bromo-α-[2-(dimethylamino)ethyl]-2-methoxy-α-1-naphthalenyl-β-phenyl-3-quinolineethanol]", "values": [{"measurement": "killing of dormant bacteria as compared to untreated control (Luciferase counts, RLU)", "setting": "[1]; 0.1 μg/ml", "value": "about 0.5 log10"}, {"measurement": "killing of dormant bacteria as compared to untreated control (Luciferase counts, RLU)", "setting": "[1]; 1 μg/ml", "value": "~2", "unit": "log10"}, {"measurement": "reduction in bacterial survival as compared to untreated control (Luciferase counts, RLU)", "setting": "[1]; 10 μg/ml", "value": "approximately 4 log10"}, {"measurement": "reduction in CFU counts compared with untreated control", "setting": "[2]; 0.1 μg/ml, day 2 after anaerobiosis", "value": "~0.5", "unit": "log10"}, {"measurement": "reduction in CFU counts compared with untreated control", "setting": "[2]; 0.1 μg/ml, day 5 after anaerobiosis", "value": "~1.1", "unit": "log10"}, {"measurement": "reduction in CFU counts compared with untreated control", "setting": "[2]; 1 μg/ml, day 2 after anaerobiosis", "value": "~2.3", "unit": "log10"}, {"measurement": "reduction in CFU counts compared with untreated control", "setting": "[2]; 1 μg/ml, day 5 after anaerobiosis", "value": "~4.7", "unit": "log10"}, {"measurement": "reduction in CFU counts compared with untreated control", "setting": "[2]; 10 μg/ml, day 2 after anaerobiosis", "value": "approximately 4 log10"}, {"measurement": "reduction in CFU counts compared with untreated control", "setting": "[2]; 10 μg/ml, day 5 after anaerobiosis", "value": "about 6 log10"}, {"measurement": "reduction of the dormant bacteria (CFU compared to untreated control)", "setting": "[3]; 1 μg/ml", "value": 1.41, "unit": "log10"}]}, {"compound": "COc1nc2ccc(Br)cc2cc1C(c1ccc(C)cc1)C(O)(CCN(C)C)c1cccc2ccccc12", "note": "(stereo not drawn) [Compound 71]", "values": [{"measurement": "reduction of the dormant bacteria (CFU compared to untreated control)", "setting": "[3]; 1 μg/ml", "value": 1.55, "unit": "log10"}, {"measurement": "reduction of the dormant bacteria (CFU compared to untreated control)", "setting": "[3]; 10 μg/ml", "value": "more than 2 log10"}]}, {"compound": "COc1nc2ccc(Br)cc2cc1C(c1ccccc1)C(O)(CCN(C)C)c1ccc2c(c1)OCO2", "note": "(stereo not drawn) [Compound 75]", "values": [{"measurement": "reduction of the dormant bacteria (CFU compared to untreated control)", "setting": "[3]; 1 μg/ml", "value": 0.87, "unit": "log10"}, {"measurement": "reduction of the dormant bacteria (CFU compared to untreated control)", "setting": "[3]; 10 μg/ml", "value": 1.14, "unit": "log10"}]}, {"compound": "COc1nc2ccc(Br)cc2cc1C(c1ccccc1)C(O)(CCn1cncn1)c1cccc2ccccc12", "note": "(stereo not drawn) [Compound 172]", "values": [{"measurement": "reduction of the dormant bacteria (CFU compared to untreated control)", "setting": "[3]; 1 μg/ml", "value": 0.29, "unit": "log10"}, {"measurement": "reduction of the dormant bacteria (CFU compared to untreated control)", "setting": "[3]; 10 μg/ml", "value": 0.98, "unit": "log10"}]}, {"compound": "NNC(=O)c1ccncc1", "note": "[Isoniazid, reference compound]", "values": [{"measurement": "effect on dormant bacteria (Luciferase counts), in words", "setting": "[1]; 10 μg/ml", "value": "no effect"}, {"measurement": "effect on dormant bacteria, in words", "setting": "[3]; 10 μg/ml", "value": "did not have any effect"}]}, {"compound": "Cc1ncc([N+](=O)[O-])n1CCO", "note": "[metronidazole, reference compound]", "values": [{"measurement": "reduction in bacterial survival as compared to untreated control (Luciferase counts, RLU)", "setting": "[1]; 10 μg/ml", "value": 2, "unit": "log10"}, {"measurement": "effect on dormant bacteria, in words", "setting": "[3]; 100 μg/ml, added at start", "value": "good efficacy"}]}]}
